Test results: patent EP2949319A1, “PHARMACEUTICAL COMPOSITIONS COMPRISING AN ACTIVE AGENT” (Galenicum Health S.L., priority 2014, dated 2015)
≈ marks a conversion by molar mass, not a printed value.

Columns and labels:
[1] = Dissolution of the active agent in the capsule fill (glycerol monocaprylocaprate, BHT); assay type: physicochemical; details: glycerol monocaprylocaprate and BHT, 20-23 °C, stirred
Description: Another advantage of the process as herein disclosed is that it is highly reproducible and robust independently of the water content of the active agent. […] However, when the active agent has a water content higher than 0.05% measured by Karl Fischer titration, the components of the fill are completely dissolved at the same range of temperatures. Furthermore, the inventors have been able to establish an optimum range of working temperatures able to obtain a fill solution completely dissolved homogeneously with active agents with a water content higher than 0.05 % w/w.
• Glycerol monocaprylocaprate was added to a stainless steel tank equipped with cooling jacket to keep it at a temperature of 20-23 °C. It was stirred until completely dissolved. • Butylhydroxytoluene (BHT) was added to the tank and stirred until completely dissolved. • Finally dutasteride anhydrous was added to the tank. • The resulting solution was kept at a range of temperature of 20-23 °C. […] Water content of the active agent and the range of temperatures were studied to avoid dissolution problems.

[2] = cited from earlier work

Row | SMILES | dissolution in the capsule fill solution [1] | solubility in water [2] [ng/mL]
1 | C[C@]12C=CC(=O)N[C@@H]1CC[C@@H]1[C@@H]2CC[C@]2(C)[C@@H](C(=O)Nc3cc(C(F)(F)F)ccc3C(F)(F)F)CC[C@@H]12 [dutasteride anhydrous, 17-beta-N-[2,5-bis(trifluoromethyl)]phenylcarbamoyl-4-aza-5-alpha-androst-1-en-3-one] | not possible to obtain a completely dissolved solution | –
2 | C[C@]12C=CC(=O)N[C@@H]1CC[C@@H]1[C@@H]2CC[C@]2(C)[C@@H](C(=O)Nc3cc(C(F)(F)F)ccc3C(F)(F)F)CC[C@@H]12 [Dutasteride, 17-beta-N-[2,5-bis(trifluoromethyl)]phenylcarbamoyl-4-aza-5-alpha-androst-1-en-3-one] | – | 0.38 (≈ 0.719 nM)
